In ChEMBL document CHEMBL5143732 (J Med Chem, 2022):
Values after ≈ are worked out from the molar mass of the structure shown.

Key:
Candida parapsilosis = experiment: Antifungal activity against Candida parapsilosis assessed as inhibition of fungal growth measured after 48 hrs by CLSI based agar dilution method; assay type: functional; conditions: Lodderomyces parapsilosis
Pichia kudriavzevii [1] = experiment: Antifungal activity against Candida krusei ATCC 6258 assessed as inhibition of fungal growth measured after 48 hrs by CLSI based agar dilution method; assay type: functional
Cryptococcus neoformans = experiment: Antifungal activity against Cryptococcus neoformans ATCC 32609 assessed as inhibition of fungal growth measured after 48 hrs by CLSI based agar dilution method; assay type: functional
[2] = Hemolytic activity in human RBC measured after 1 hr; assay type: toxicity, cell-based, Erythrocyte; conditions: red blood cells (erythrocytes)
Pichia kudriavzevii [3] = experiment: Antifungal activity against Candida krusei assessed as inhibition of fungal growth measured after 48 hrs by CLSI based agar dilution method; assay type: functional
Candida albicans = experiment: Antifungal activity against Candida albicans assessed as inhibition of fungal growth measured after 48 hrs by CLSI based agar dilution method; assay type: functional
Candida tropicalis = experiment: Antifungal activity against Candida tropicalis assessed as inhibition of fungal growth measured after 48 hrs by CLSI based agar dilution method; assay type: functional

SMILES	MIC (Candida parapsilosis) [µg/mL]	MIC (Pichia kudriavzevii [1]) [µg/mL]	MIC (Cryptococcus neoformans) [µg/mL]	MIC (Pichia kudriavzevii [3]) [µg/mL]	MIC (Candida albicans) [µg/mL]	MIC (Candida tropicalis) [µg/mL]	HC50 at 1 h [2] [µM]
CNCC(=O)N[C@@H]1[C@H](O)[C@H](O[C@H]2/C=C/C=C/C=C/C=C/C=C/C=C/C=C/[C@H](C)[C@@H](O)[C@@H](C)[C@H](C)OC(=O)C[C@H](O)C[C@H](O)CC[C@@H](O)[C@H](O)C[C@H](O)C[C@]3(O)C[C@H](O)[C@@H](C(=O)N4CCN(CC(C)(C)O)CC4)[C@H](C2)O3)O[C@H](C)[C@H]1O	4 (≈ 3.52 µM)	16 (≈ 14.1 µM)	0.5 (≈ 0.44 µM)	0.5 (≈ 0.44 µM)	0.25 (≈ 0.22 µM)	1 (≈ 0.881 µM)	27.7
CNCC(=O)N[C@@H]1[C@H](O)[C@H](O[C@H]2/C=C/C=C/C=C/C=C/C=C/C=C/C=C/[C@H](C)[C@@H](O)[C@@H](C)[C@H](C)OC(=O)C[C@H](O)C[C@H](O)CC[C@@H](O)[C@H](O)C[C@H](O)C[C@]3(O)C[C@H](O)[C@@H](C(=O)N(C)CCCO)[C@H](C2)O3)O[C@H](C)[C@H]1O	4 (≈ 3.75 µM)	4 (≈ 3.75 µM)	1 (≈ 0.938 µM)	0.5 (≈ 0.469 µM)	0.06 (≈ 0.0563 µM)	4 (≈ 3.75 µM)	9.52
CNCC(=O)N[C@@H]1[C@H](O)[C@H](O[C@H]2/C=C/C=C/C=C/C=C/C=C/C=C/C=C/[C@H](C)[C@@H](O)[C@@H](C)[C@H](C)OC(=O)C[C@H](O)C[C@H](O)CC[C@@H](O)[C@H](O)C[C@H](O)C[C@]3(O)C[C@H](O)[C@@H](C(=O)N4CCN(CCOC)CC4)[C@H](C2)O3)O[C@H](C)[C@H]1O	4 (≈ 3.57 µM)	32 (≈ 28.5 µM)	0.25 (≈ 0.223 µM)	2 (≈ 1.78 µM)	0.5 (≈ 0.446 µM)	0.5 (≈ 0.446 µM)	
CNCC(=O)N[C@@H]1[C@H](O)[C@H](O[C@H]2/C=C/C=C/C=C/C=C/C=C/C=C/C=C/[C@H](C)[C@@H](O)[C@@H](C)[C@H](C)OC(=O)C[C@H](O)C[C@H](O)CC[C@@H](O)[C@H](O)C[C@H](O)C[C@]3(O)C[C@H](O)[C@@H](C(=O)NCCN(C)C)[C@H](C2)O3)O[C@H](C)[C@H]1O	2 (≈ 1.88 µM)	16 (≈ 15 µM)	0.5 (≈ 0.469 µM)	2 (≈ 1.88 µM)	2 (≈ 1.88 µM)	4 (≈ 3.75 µM)	
CNCC(=O)N[C@@H]1[C@H](O)[C@H](O[C@H]2/C=C/C=C/C=C/C=C/C=C/C=C/C=C/[C@H](C)[C@@H](O)[C@@H](C)[C@H](C)OC(=O)C[C@H](O)C[C@H](O)CC[C@@H](O)[C@H](O)C[C@H](O)C[C@]3(O)C[C@H](O)[C@@H](C(=O)N4CCN(C(=O)c5ccncn5)CC4)[C@H](C2)O3)O[C@H](C)[C@H]1O	16 (≈ 13.7 µM)	16 (≈ 13.7 µM)	1 (≈ 0.855 µM)	1 (≈ 0.855 µM)	1 (≈ 0.855 µM)	4 (≈ 3.42 µM)	
CNCC(=O)N[C@@H]1[C@H](O)[C@H](O[C@H]2/C=C/C=C/C=C/C=C/C=C/C=C/C=C/[C@H](C)[C@@H](O)[C@@H](C)[C@H](C)OC(=O)C[C@H](O)C[C@H](O)CC[C@@H](O)[C@H](O)C[C@H](O)C[C@]3(O)C[C@H](O)[C@@H](C(=O)N4CCN(C(=O)COCCOC)CC4)[C@H](C2)O3)O[C@H](C)[C@H]1O	4 (≈ 3.39 µM)	16 (≈ 13.6 µM)	4 (≈ 3.39 µM)	8 (≈ 6.78 µM)	4 (≈ 3.39 µM)	16 (≈ 13.6 µM)	
C[C@@H]1[C@H](O)[C@@H](C)/C=C/C=C/C=C/C=C/C=C/C=C/C=C/[C@H](O[C@@H]2O[C@H](C)[C@@H](O)[C@H](N)[C@@H]2O)C[C@@H]2O[C@](O)(C[C@@H](O)C[C@@H](O)[C@H](O)CC[C@@H](O)C[C@@H](O)CC(=O)O[C@H]1C)C[C@H](O)[C@H]2C(=O)NNC(=O)c1ccccc1	4 (≈ 3.84 µM)	2 (≈ 1.92 µM)	0.5 (≈ 0.48 µM)	1 (≈ 0.959 µM)	0.5 (≈ 0.48 µM)	4 (≈ 3.84 µM)	
CNCCOCC(=O)N[C@@H]1[C@H](O)[C@H](O[C@H]2/C=C/C=C/C=C/C=C/C=C/C=C/C=C/[C@H](C)[C@@H](O)[C@@H](C)[C@H](C)OC(=O)C[C@H](O)C[C@H](O)CC[C@@H](O)[C@H](O)C[C@H](O)C[C@]3(O)C[C@H](O)[C@@H](C(=O)N4CCN(CCO)CC4)[C@H](C2)O3)O[C@H](C)[C@H]1O	2 (≈ 1.74 µM)	16 (≈ 13.9 µM)	1 (≈ 0.869 µM)	2 (≈ 1.74 µM)	1 (≈ 0.869 µM)	1 (≈ 0.869 µM)	
CNCC(=O)N[C@@H]1[C@H](O)[C@H](O[C@H]2/C=C/C=C/C=C/C=C/C=C/C=C/C=C/[C@H](C)[C@@H](O)[C@@H](C)[C@H](C)OC(=O)C[C@H](O)C[C@H](O)CC[C@@H](O)[C@H](O)C[C@H](O)C[C@]3(O)C[C@H](O)[C@@H](C(=O)N4CCN(CCS(C)(=O)=O)CC4)[C@H](C2)O3)O[C@H](C)[C@H]1O	2 (≈ 1.71 µM)	16 (≈ 13.7 µM)	2 (≈ 1.71 µM)	4 (≈ 3.42 µM)	2 (≈ 1.71 µM)	4 (≈ 3.42 µM)	

Now from value to compound, other results behind:

MIC (Candida parapsilosis) [µg/mL]	MIC (Pichia kudriavzevii [1]) [µg/mL]	MIC (Cryptococcus neoformans) [µg/mL]	MIC (Pichia kudriavzevii [3]) [µg/mL]	MIC (Candida albicans) [µg/mL]	MIC (Candida tropicalis) [µg/mL]	SMILES	HC50 at 1 h [2] [µM]
2 (≈ 1.74 µM)	8 (≈ 6.95 µM)	0.5 (≈ 0.434 µM)	0.5 (≈ 0.434 µM)	0.06 (≈ 0.0521 µM)	1 (≈ 0.869 µM)	CNCC(=O)N[C@@H]1[C@H](O)[C@H](O[C@H]2/C=C/C=C/C=C/C=C/C=C/C=C/C=C/[C@H](C)[C@@H](O)[C@@H](C)[C@H](C)OC(=O)C[C@H](O)C[C@H](O)CC[C@@H](O)[C@H](O)C[C@H](O)C[C@]3(O)C[C@H](O)[C@@H](C(=O)N4CCN(CC(C)(O)CO)CC4)[C@H](C2)O3)O[C@H](C)[C@H]1O (stereo not given in full)	20.6
1 (≈ 0.95 µM)	2 (≈ 1.9 µM)	0.5 (≈ 0.475 µM)	1 (≈ 0.95 µM)	0.5 (≈ 0.475 µM)	1 (≈ 0.95 µM)	CNCC(=O)N[C@@H]1[C@H](O)[C@H](O[C@H]2/C=C/C=C/C=C/C=C/C=C/C=C/C=C/[C@H](C)[C@@H](O)[C@@H](C)[C@H](C)OC(=O)C[C@H](O)C[C@H](O)CC[C@@H](O)[C@H](O)C[C@H](O)C[C@]3(O)C[C@H](O)[C@@H](C(=O)N(C)CCO)[C@H](C2)O3)O[C@H](C)[C@H]1O	14.8
2 (≈ 1.9 µM)	0.5 (≈ 0.475 µM)	1.12 (≈ 1.07 µM)	0.125 (≈ 0.119 µM)	0.06 (≈ 0.057 µM)	0.25 (≈ 0.237 µM)	COC(=O)NNC(=O)[C@H]1[C@@H]2C[C@@H](O[C@@H]3O[C@H](C)[C@@H](O)[C@H](NC(=O)CN)[C@@H]3O)/C=C/C=C/C=C/C=C/C=C/C=C/C=C/[C@H](C)[C@@H](O)[C@@H](C)[C@H](C)OC(=O)C[C@H](O)C[C@H](O)CC[C@@H](O)[C@H](O)C[C@H](O)C[C@](O)(C[C@@H]1O)O2	8.84
2 (≈ 1.93 µM)	0.125 (≈ 0.12 µM)	0.5 (≈ 0.482 µM)	1 (≈ 0.963 µM)	1 (≈ 0.963 µM)	2 (≈ 1.93 µM)	CNCC(=O)N[C@@H]1[C@H](O)[C@H](O[C@H]2/C=C/C=C/C=C/C=C/C=C/C=C/C=C/[C@H](C)[C@@H](O)[C@@H](C)[C@H](C)OC(=O)C[C@H](O)C[C@H](O)CC[C@@H](O)[C@H](O)C[C@H](O)C[C@]3(O)C[C@H](O)[C@@H](C(=O)NCCO)[C@H](C2)O3)O[C@H](C)[C@H]1O	1.79
2 (≈ 1.93 µM)	1 (≈ 0.964 µM)	0.125 (≈ 0.121 µM)	0.125 (≈ 0.121 µM)	0.06 (≈ 0.0578 µM)	2 (≈ 1.93 µM)	CC(=O)NNC(=O)[C@H]1[C@@H]2C[C@@H](O[C@@H]3O[C@H](C)[C@@H](O)[C@H](NC(=O)CN)[C@@H]3O)/C=C/C=C/C=C/C=C/C=C/C=C/C=C/[C@H](C)[C@@H](O)[C@@H](C)[C@H](C)OC(=O)C[C@H](O)C[C@H](O)CC[C@@H](O)[C@H](O)C[C@H](O)C[C@](O)(C[C@@H]1O)O2	6
2 (≈ 1.85 µM)	4 (≈ 3.71 µM)	0.25 (≈ 0.232 µM)	2 (≈ 1.85 µM)	0.5 (≈ 0.464 µM)	2 (≈ 1.85 µM)	CNCC(=O)N[C@@H]1[C@H](O)[C@H](O[C@H]2/C=C/C=C/C=C/C=C/C=C/C=C/C=C/[C@H](C)[C@@H](O)[C@@H](C)[C@H](C)OC(=O)C[C@H](O)C[C@H](O)CC[C@@H](O)[C@H](O)C[C@H](O)C[C@]3(O)C[C@H](O)[C@@H](C(=O)N4CCC(O)CC4)[C@H](C2)O3)O[C@H](C)[C@H]1O	6.3
0.5 (≈ 0.446 µM)	2 (≈ 1.78 µM)	0.125 (≈ 0.111 µM)	0.5 (≈ 0.446 µM)	0.5 (≈ 0.446 µM)	0.5 (≈ 0.446 µM)	CNCC(=O)N[C@@H]1[C@H](O)[C@H](O[C@H]2/C=C/C=C/C=C/C=C/C=C/C=C/C=C/[C@H](C)[C@@H](O)[C@@H](C)[C@H](C)OC(=O)C[C@H](O)C[C@H](O)CC[C@@H](O)[C@H](O)C[C@H](O)C[C@]3(O)C[C@H](O)[C@@H](C(=O)N4CCN(CCCO)CC4)[C@H](C2)O3)O[C@H](C)[C@H]1O	19.5
0.5 (≈ 0.482 µM)	0.25 (≈ 0.241 µM)	0.25 (≈ 0.241 µM)	0.25 (≈ 0.241 µM)	0.5 (≈ 0.482 µM)	2 (≈ 1.93 µM)	C[C@@H]1[C@H](O)[C@@H](C)/C=C/C=C/C=C/C=C/C=C/C=C/C=C/[C@H](O[C@@H]2O[C@H](C)[C@@H](O)[C@H](NC(=O)CN)[C@@H]2O)C[C@@H]2O[C@](O)(C[C@@H](O)C[C@@H](O)[C@H](O)CC[C@@H](O)C[C@@H](O)CC(=O)O[C@H]1C)C[C@H](O)[C@H]2C(=O)NCCCO	7.86
0.5 (≈ 0.452 µM)	2 (≈ 1.81 µM)	0.03 (≈ 0.0271 µM)	0.25 (≈ 0.226 µM)	0.125 (≈ 0.113 µM)	0.5 (≈ 0.452 µM)	CNCC(=O)N[C@@H]1[C@H](O)[C@H](O[C@H]2/C=C/C=C/C=C/C=C/C=C/C=C/C=C/[C@H](C)[C@@H](O)[C@@H](C)[C@H](C)OC(=O)C[C@H](O)C[C@H](O)CC[C@@H](O)[C@H](O)C[C@H](O)C[C@]3(O)C[C@H](O)[C@@H](C(=O)N4CCN(CCO)CC4)[C@H](C2)O3)O[C@H](C)[C@H]1O	15.1
1 (≈ 0.882 µM)	4 (≈ 3.53 µM)	1 (≈ 0.882 µM)	2 (≈ 1.76 µM)	1 (≈ 0.882 µM)	1 (≈ 0.882 µM)	CNCC(=O)N[C@@H]1[C@H](O)[C@H](O[C@H]2/C=C/C=C/C=C/C=C/C=C/C=C/C=C/[C@H](C)[C@@H](O)[C@@H](C)[C@H](C)OC(=O)C[C@H](O)C[C@H](O)CC[C@@H](O)[C@H](O)C[C@H](O)C[C@]3(O)C[C@H](O)[C@@H](C(=O)N4CCN(CCN(C)C)CC4)[C@H](C2)O3)O[C@H](C)[C@H]1O	
